Assay results reported in US6211439A, “Herbicide resistance in plants” (MGI Pharma, Inc, priority 1995, dated 2001).
pIC50: −log10 of the molar value. In brackets after ≈: the same amount, converted by molar mass. Where two headings read alike, the source gives them in different places.

Legend:
line XA17 tissue = test: Callus growth inhibition, resistant line XA17; assay type: cell-based, maize; conditions: Zea mays, 336 h, read-out: level giving a 50% growth inhibition
Method: (§1) Therefore the effects of 214 were determined on callus growth. Quantities of tissue averaging 90 mg in size were transferred to nutrient agar maintenance media containing concentrations of 214 ranging from 0.003 to 3 mg per liter. Eight tissue pieces were placed on each plate with three plates per herbicide concentration. After 14 days growth, the tissue was weighed again.
Initially, the maximum level of 214 in which line XA17 would grow stably was determined. Stock tissue which had been maintained in the presence of 0.1 mg per liter 214 was transferred to media containing 214 levels ranging up to 30 mg per liter. Tissue was maintained for several subculture intervals and the growth rate evaluated.

[1] = test system: unselected maize callus tissue; test: Callus culture growth inhibition, unselected tissue; assay type: cell-based; conditions: for IC50: Zea mays, 336 h
Method: as §1

[2] = test system: maize cell suspension cultures; test: Reversal of herbicide growth inhibition by leucine, valine and isoleucine; assay type: cell-based; parameters: key to Cell suspension culture growth, (+) 997: settled cell volume, ml per 10 ml of suspension
Method: Growth inhibition studies were carried out in 125 ml flasks containing 30 ml of test media. 997 was filter sterilized and added to cooling media following autoclaving. Test media were innoculated with cells to give a settled cell volume (15 minutes without centrifugation) of 0.2 ml per 10 ml of suspension. After either six or seven days growth settled cell volumes were again quantitated.
Cells were tested to determine whether the herbicide induced inhibition of growth was the result of the decreased availability of the three branched chain amino acids. Cells were exposed to toxic levels of 997 (1×10^-6 M) in media either supplemented with 1 mM concentrations of leucine, valine, and isoleucine or with no supplementation. Culture growth rates in the absence of amino acid supplementation and in the presence of 1×10^-6 M 997 were reduced to 16% that of herbicide free cultures.
Experiments were conducted to determine the optimum supplementation levels of each of the three amino acids to obtain maximum herbicide protection and for gaining insight into the site of action of the compound.

[3] = test system: Callus tissue from line UV18; test: Callus growth inhibition, line UV18; assay type: cell-based, maize; conditions: for Callus Growth Fold Increase in Tolerance: line UV18 vs control tissue, based on herbicide amount giving 50% reduction in growth rate
Method: The UV18 cell line was first observed after 25 weeks of selection comprising 9 subculture intervals. The tissue in the selection procedure had been exposed to 0.1 mg per liter 214 for four subculture intervals followed by exposure to 0.3 mg per liter 214 for four subculture intervals. UV18 was identified during the ninth subculture as a rapidly growing sector of tissue with good morphology.
(§2) Callus tissue from line QJ22 was tested also with the compound 567. The numbers represent the fold increase in herbicide concentration that can be tolerated by each of the cell lines as compared to control tissue. The values were calculated based on the amount of herbicide that gave a 50% reduction in growth rate.

[4] = test system: acetohydroxyacid synthase (AHAS); test: AHAS activity assay, extract of maize cell cultures / control tissue; assay type: biochemical
Method: Plant cell culture material was ground with sand in a cold mortar and pestle in an equal quantity (w/v) of cell disruption media containing 0.05 M potassium phosphate (pH 7.0), 0.1 mM MgSO4, and 0.5 mM dithiothreitol. The preparation was centrifuged at 11,000×g for 20 minutes and the supernatant assayed for AHAS activity. Assays were conducted in 1 ml volumes containing 0.05 M potassium phosphate (pH 8.0), 40 mM pyruvate, 5 mM MgCl2, 0.1 mM thiamine pyrophosphate, 0.2 ml cell extract, and various concentrations of the herbicide of interest. The reaction mixtures were incubated at 30° C. for 75 minutes and the reaction terminated with the addition of 0.1 ml of 50% (v/v) H2 SO4. […] To 0.2 ml of reaction mixture, 0.8 ml of water, 0.5 ml of 0.5% (w/v) creatine, and 0.5 ml of 5% (w/v) naphthol in 10% (w/v) NaOH was added. After mixing, solutions were incubated at room temperature for one hour.

[5] = test system: Callus tissue from line QJ22; test: Callus growth inhibition, line QJ22; assay type: cell-based, maize; conditions: line QJ22 vs control tissue; based on herbicide amount giving 50% reduction in growth rate
Method: as §2

[6] = test system: AHAS activity of line XA17 tissue; test: AHAS activity assay, line XA17 tissue; assay type: biochemical, maize; conditions: for pIC50: AHAS activity of line XA17 tissue, read-out: concentration inhibiting AHAS activity 50%; for change in herbicide sensitivity of AHAS, line XA17 vs control, on a concentration basis: maize
Method: Assays were conducted as a modification of the procedure of Smith et al. (1979, Molec. Gen. Genet. 169: 299-314). Plant cell culture material was ground with sand in a cold mortar and pestle in an equal quantity (w/v) of cell disruption media containing 0.05 M potassium phosphate (pH 7.0), 0.1 mM MgSO4, and 0.5 mM dithiothreitol. The preparation was centrifuged at 11,000×g for 20 minutes and the supernatant assayed for AHAS activity. Assays were conducted in 1 ml volumes containing 0.05 M potassium phosphate (pH 8.0), 40 mM pyruvate, 5 mM MgCl2, 0.1 mM thiamine pyrophosphate, 0.2 ml cell extract, and various concentrations of the herbicide of interest. The reaction mixtures were incubated at 30° C. for 75 minutes and the reaction terminated with the addition of 0.1 ml of 50% (v/v) H2 SO4. Following further incubation at 40° C. for 20 minutes, the acetoin formed from acetolactate by acidification was quantitated using the method of Westerfield (1945, J. Biol. Chem. 161: 495). To 0.2 ml of reaction mixture, 0.8 ml of water, 0.5 ml of 0.5% (w/v) creatine, and 0.5 ml of 5% (w/v) naphthol in 10% (w/v) NaOH was added. After mixing, solutions were incubated at room temperature for one hour. The development of pink color was quantitated by measuring light absorbance at 530 nm.
Assays were conducted to determine if acetohydroxyacid synthase extracted from line XA17 tissue was altered with respect to herbicide sensitivity. Such a change would signify that an alteration of this enzyme conferred the herbicide resistance. Assays were conducted as described supra.

[7] = read-out: level giving a 50% growth inhibition
[8] = AHAS activity of control tissue, read-out: concentration inhibiting AHAS activity 50%

## CC(C)C1(C)NC(c2nc3ccccc3cc2C(=O)O)=NC1=O (stereo not drawn) [compound 214, 2-(5-isopropyl-5-methyl-4-oxo-2-imidazolin-2-yl)3-quinolinecarboxylic acid]
Line XA17 tissue
  IC50: 30 µg/mL (≈ 96.4 µM)
[1]; 14 day period, 0.003 to 3 mg per liter
  Cell death: not observed to occur
[1]; read-out: concentration giving half maximal inhibition of callus growth rate
  IC50: 0.1 to 0.3 µg/mL (≈ 0.321 to 0.964 µM)
[1]; [7]
  IC50: 0.1 to 0.3 µg/mL (≈ 0.321 to 0.964 µM)
[2]; 1 mM each of leucine, isoleucine, and valine, cell suspension cultures
  effect of media supplementation with leucine, isoleucine, valine on growth inhibition: reversed the growth inhibitory effects
[3]; 0.3 mg per liter 214, vs control tissue in the absence of herbicide
  growth of UV18 tissue in presence of herbicide: grew as rapidly
[3]
  Callus Growth Fold Increase in Tolerance: 100 fold
[4]; AHAS activity from maize cell cultures
  effect on AHAS enzyme activity: inhibited the enzyme activity
[4]; [8]
  pIC50: 5.00 to 6.00
[5]
  Callus Growth Fold Increase in Tolerance: 5 fold
[6]
  pIC50: 1.52 to 2.52
  change in herbicide sensitivity of AHAS, line XA17 vs control, on a concentration basis: ≥ 1000 fold

## CC(C)C1(C)NC(c2ncccc2C(=O)O)=NC1=O (stereo not drawn) [compound 997, 2-(5-isopropyl-5-methyl-4-oxo-2-imidazolin-2-yl)nicotinic acid]
Line XA17 tissue
  IC50: > 30 µg/mL
[1]; [7]
  IC50: 0.1 to 0.3 µg/mL (≈ 0.383 to 1.15 µM)
[2]; 0.3 ile
  Cell suspension culture growth, (+) 997: .33
[2]; 0.3 leu
  Cell suspension culture growth, (+) 997: .29
[2]; 0.3 val
  Cell suspension culture growth, (+) 997: .48
[2]; 1×10^-6 M 997, media supplemented with 1 mM leucine, valine, and isoleucine
  Culture growth rate relative to control cultures: 91%
[2]; 997 ranging in concentration from 1×10^-8 to 1×10^-3 M
  effect of media supplementation with leucine, valine, isoleucine on growth inhibition: could reverse the growth inhibitory effects
[2]; Leucine, Valine, Isoleucine 1,1,1
  Cell suspension culture growth, (+) 997: 1.88
[2]; Leucine, Valine, Isoleucine 1,1,.1
  Cell suspension culture growth, (+) 997: .93
[2]; Leucine, Valine, Isoleucine 1,1,.3
  Cell suspension culture growth, (+) 997: 1.55
[2]; Leucine, Valine, Isoleucine 1,.1,1
  Cell suspension culture growth, (+) 997: 1.28
[2]; Leucine, Valine, Isoleucine 1,.1,.1
  Cell suspension culture growth, (+) 997: 1.03
[2]; Leucine, Valine, Isoleucine 1,.1,.3
  Cell suspension culture growth, (+) 997: 1.38
[2]; Leucine, Valine, Isoleucine 1,.3,1
  Cell suspension culture growth, (+) 997: 1.45
[2]; Leucine, Valine, Isoleucine 1,.3,.1
  Cell suspension culture growth, (+) 997: .98
[2]; Leucine, Valine, Isoleucine 1,.3,.3
  Cell suspension culture growth, (+) 997: 1.40
[2]; Leucine, Valine, Isoleucine .1,1,1
  Cell suspension culture growth, (+) 997: .60
[2]; Leucine, Valine, Isoleucine .1,1,.1
  Cell suspension culture growth, (+) 997: .83
[2]; Leucine, Valine, Isoleucine .1,1,.3
  Cell suspension culture growth, (+) 997: .68
[2]; Leucine, Valine, Isoleucine .1,.1,1
  Cell suspension culture growth, (+) 997: .58
[2]; Leucine, Valine, Isoleucine .1,.1,.1
  Cell suspension culture growth, (+) 997: .70
[2]; Leucine, Valine, Isoleucine .1,.1,.3
  Cell suspension culture growth, (+) 997: .68
[2]; Leucine, Valine, Isoleucine .1,.3,1
  Cell suspension culture growth, (+) 997: .80
[2]; Leucine, Valine, Isoleucine .1,.3,.1
  Cell suspension culture growth, (+) 997: .75
[2]; Leucine, Valine, Isoleucine .1,.3,.3
  Cell suspension culture growth, (+) 997: .90
[2]; Leucine, Valine, Isoleucine .3,1,1
  Cell suspension culture growth, (+) 997: 1.30
[2]; Leucine, Valine, Isoleucine .3,1,.1
  Cell suspension culture growth, (+) 997: 1.08
[2]; Leucine, Valine, Isoleucine .3,1,.3
  Cell suspension culture growth, (+) 997: 1.30
[2]; Leucine, Valine, Isoleucine .3,.1,1
  Cell suspension culture growth, (+) 997: .80
[2]; Leucine, Valine, Isoleucine .3,.1,.1
  Cell suspension culture growth, (+) 997: .70
[2]; Leucine, Valine, Isoleucine .3,.1,.3
  Cell suspension culture growth, (+) 997: .95
[2]; Leucine, Valine, Isoleucine .3,.3,1
  Cell suspension culture growth, (+) 997: 1.08
[2]; Leucine, Valine, Isoleucine .3,.3,.1
  Cell suspension culture growth, (+) 997: .95
[2]; Leucine, Valine, Isoleucine .3,.3,.3
  Cell suspension culture growth, (+) 997: 1.18
[2]; No Supplementation (4 replicates)
  Cell suspension culture growth, (+) 997: 0.30
[2]; Zea mays, 1×10^-6 M 997, absence of amino acid supplementation, read-out: Culture growth rate relative to herbicide free cultures
  activity at 1 µM: 16%
[3]
  Callus Growth Fold Increase in Tolerance: 100 fold
[4]; AHAS activity from maize cell cultures, read-out: concentration reducing AHAS enzyme activity 50%
  pIC50: 5.10
[4]; [8]
  pIC50: 5.00 to 6.00
[5]
  Callus Growth Fold Increase in Tolerance: 30-50 fold
[6]
  pIC50: 1.52 to 2.52
  change in herbicide sensitivity of AHAS, line XA17 vs control, on a concentration basis: ≥ 1000 fold
